Measurements taken from US7943598B2, “Use of organic glucosamine salts” (Bioiberica, S.A., priority 2004, dated 2011).

Test system: aggrecan degradation induced with IL-1α
Assay: Inhibition of aggrecan degradation (aggrecanolysis) induced with IL-1α in LTC chondrocyte culture, Western Blot with anti-G1 antibody
Assay type: cell-based, rat
Conditions: for inhibition of aggrecanolysis induced by IL-1α vs. the control: LTC rat chondrosarcoma chondrocyte culture, 10 ng/mL IL-1α, 4 days, control = culture with only IL-1α
Protocol: The study of the inhibition of aggrecan degradation was performed on a chondrocyte culture from a rat chondrosarcoma cell line. This cell line, called LTC, deposits an extracellular matrix similar to the cartilage's, expresses all the components of the aggrecanase system, generates the fragmentation of aggrecan by said enzymes, and responds to known aggrecanolysis inhibitors such as glucosamine hydrochloride. The assays were performed on chondrocyte cultures from a rat chondrosarcoma cell line called LTC. The LTC cells were kept in a monolayer culture in a Gibco DMEM medium (Dulbecco's Modification of Eagle's Medium) (containing 4.5 g/L of glucose) supplemented with sodium bicarbonate (3.7 g/L), glutamine (2 mM), ascorbic acid (50 mg/L), gentamicin (50 mg/L), and bovine fetal serum Hyalone (10%), at pH 7.4. The confluent LTC cell cultures were trypsinised and 40,000 cells per 0.5 mL of culture were seeded in 48-well plates. They were maintained for 5 days, during which time they deposited 15-30 μg of glycosaminoglycans (GAG) in each well. The medium was separated, the cell membranes were washed by adding 5×1 mL of a catabolic medium {DMEM+4.5 g/L glucose supplemented with sodium bicarbonate (3.7 g/L), glutamine (2 mM), and 10 ng/mL of IL-1α (interleukin-1α) at pH 7.4}. Subsequently, the cultures were kept in 200 μL of this medium, supplemented or not with glucosamine hydrogen malate, for 4 days, without changing the medium, at 37° C. In order to verify the effect of glucosamine hydrogen malate on aggrecan degradation, a Western Blot was performed. For the Western Blot, 20 μL of 50 mM tris-acetate at pH 7.3 were added to each well. The cultures (medium+cell membrane) were deglycosylated with 50 mU of chondroitinase ABC at 37° C. for 4 hours. Subsequently, the samples in each well were recovered and centrifuged at 1,460 g for 10 minutes. 25 μL-fractions of the supernatant were separated by electrophoresis (gel gradient 8-12% SDS PAGE) and analysed by means of a Western Blot using anti-G1 antibody. The antiserum was used at a 1:5,000 dilution and the peroxidase-conjugated goat anti-(rabbit IgG) was detected by means of the Amersham ECL Kit. The exposure time ranged between 5 seconds and 5 minutes in order to obtain quantifiable images. The Western Blots were scanned and the bands were quantified by means of the SCION image analysis software. In relation to the described procedure, see: J. D. Sandy et al., Biochem. J. 335, 59-66 (1998).

Compound	inhibition of aggrecanolysis induced by IL-1α vs. the control (1 mM) [%]	inhibition of aggrecanolysis induced by IL-1α vs. the control (10 mM) [%]	effectiveness in inhibiting aggrecanolysis compared with glucosamine hydrochloride (FIG. 1) (10 mM, LTC culture with IL-1α)
Cl.N[C@H]1C(O)O[C@H](CO)[C@@H](O)[C@@H]1O (some centres unmarked) [glucosamine hydrochloride, reference compound]	83±4.9	53±5.8	–
N[C@H]1C(O)O[C@H](CO)[C@@H](O)[C@@H]1O.O=C(O)CC(O)C(=O)O (some centres unmarked) [glucosamine hydrogen malate, Glucosamine Hydrogen Malate]	95±17.5	32±3.7	significantly more effective than glucosamine hydrochloride
